# Calls of active or inactive are those of the source. The calls are words filed in the database; no cut-off is given here.
# Key:
# [1] = Aqueous solubility of the compound in PBS at pH 7.4 incubated for 24 hrs by UV-3000 absorption spectrometry analysis; assay type: physicochemical; conditions: for solubility at 24 h: PBS, pH 7.4
# [2] = Aqueous solubility of the compound in simulated intestinal fluid without trypsin at pH 6.8 incubated for 24 hrs by UV-3000 absorption spectrometry analysis; assay type: physicochemical; conditions: for solubility: simulated gi fluid, pH 6.8, 24 h
# [3] = Aqueous solubility of the compound in simulated gastric fluid without pepsin at pH 1.2 incubated for 24 hrs by UV-3000 absorption spectrometry analysis; assay type: physicochemical; conditions: for solubility: simulated gi fluid, pH 1.2, 24 h
# [4] = Aqueous solubility of the compound in double distilled water at pH 7 incubated for 24 hrs by UV-3000 absorption spectrometry analysis; assay type: physicochemical; conditions: for solubility at 24 h: double distilled water, pH 7
# [5] = target: T1, P2Y purinoceptor 14 (Homo sapiens, UniProt Q15391); experiment: Antagonist activity at P2Y14R (unknown origin) expressed in HEK293 cells assessed as inhibition of forskolin-stimulated cAMP accumulation incubated in presence of IBMX by cAMP-glo assay; assay type: functional, cell-based
# T1 sequence (Q15391 whole entry): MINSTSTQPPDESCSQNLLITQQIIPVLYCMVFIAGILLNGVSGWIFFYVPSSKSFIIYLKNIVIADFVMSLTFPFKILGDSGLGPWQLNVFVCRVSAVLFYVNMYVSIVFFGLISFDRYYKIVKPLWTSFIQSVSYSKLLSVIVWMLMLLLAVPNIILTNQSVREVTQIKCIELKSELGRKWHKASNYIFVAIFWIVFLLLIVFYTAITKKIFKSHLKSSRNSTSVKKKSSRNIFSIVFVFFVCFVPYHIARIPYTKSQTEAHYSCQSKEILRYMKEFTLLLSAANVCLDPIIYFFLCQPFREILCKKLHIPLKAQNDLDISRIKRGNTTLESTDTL
# [6] = target: T2, P2Y purinoceptor 14 (Homo sapiens) (UniProt Q15391)
# T2 sequence (whole entry): T1 sequence (Q15391 whole entry)
# [7] = Half life in Sprague-Dawley rat at 10 mg/kg, po measured for 24 hrs; assay type: ADME, organism-based; conditions: in vivo
# [8] = Metabolic stability in rat liver microsomes assessed as elimination rate constant at 2 ug/ml preincubated for 5 mins followed by NADPH addition and measured upto 45 mins by LC-MS/MS analysis; assay type: ADME, Microsome; conditions: dose 2 µg/ml, time < 50 min
# [9] = Metabolic stability in rat liver microsomes assessed as half life at 2 ug/ml preincubated for 5 mins followed by NADPH addition and measured upto 45 mins by LC-MS/MS analysis; assay type: ADME, Microsome; conditions: dose 2 µg/ml, time < 50 min
# [10] = Tmax in Sprague-Dawley rat at 10 mg/kg, po measured for 24 hrs; assay type: ADME, organism-based; conditions: in vivo
# [11] = Metabolic stability in human liver microsomes assessed as half life at 2 ug/ml preincubated for 5 mins followed by NADPH addition and measured upto 45 mins by LC-MS/MS analysis; assay type: ADME, Microsome; conditions: dose 2 µg/ml, time < 50 min
# [12] = Metabolic stability in human liver microsomes assessed as elimination rate constant at 2 ug/ml preincubated for 5 mins followed by NADPH addition and measured upto 45 mins by LC-MS/MS analysis; assay type: ADME, Microsome; conditions: dose 2 µg/ml, time < 50 min
# [13] = Clearance in Sprague-Dawley rat at 10 mg/kg, po measured for 24 hrs; assay type: ADME, organism-based; conditions: in vivo
# [14] = Clearance in Sprague-Dawley rat at 2.5 mg/kg, iv measured for 24 hrs; assay type: ADME, organism-based; conditions: in vivo
# [15] = Oral bioavailability in Sprague-Dawley rat at 10 mg/kg measured for 24 hrs; assay type: ADME, organism-based; conditions: in vivo
# [16] = AUC (0 to infinity) in Sprague-Dawley rat at 10 mg/kg, po measured for 24 hrs; assay type: ADME, organism-based; parameters: dose 10 mg/kg, time 24 hrs, route po; conditions: in vivo
# [17] = Cmax in Sprague-Dawley rat at 10 mg/kg, po measured for 24 hrs; assay type: ADME, organism-based; parameters: time 24 hrs, dose 10 mg/kg, route po; conditions: in vivo
# [18] = Half life in Sprague-Dawley rat at 2.5 mg/kg, iv measured for 24 hrs; assay type: ADME, organism-based; conditions: in vivo
# [19] = AUC (0 to infinity) in Sprague-Dawley rat at 2.5 mg/kg, iv measured for 24 hrs; assay type: ADME, organism-based; parameters: time 24 hrs, dose 2.5 mg/kg, route iv; conditions: in vivo
# [20] = (§1) Inhibition of caspase-1 mediated pyroptosis in LPS/ATP induced PMA-differentiated human THP-1 cells assessed as late apoptotic cells at 10 uM pretreated for 24 hrs followed by LPS addition for 3 hrs and further incubated for 1 hr with ATP by caspase-1/PI staining based flow cytometry analysis (reference value: 16.3%); assay type: functional; parameters: scale not given: the % may be the effect or the level left; conditions: time 28 hrs
# [21] = as §1, with “live” for “late apoptotic”, “43.3%)” for “16.3%)”; assay type: functional; parameters: scale not given: the % may be the effect or the level left; conditions: time 28 hrs
# [22] = as §1, with “early” for “late”, “17.9%)” for “16.3%)”; assay type: functional; parameters: scale not given: the % may be the effect or the level left; conditions: time 28 hrs
# [23] = target: P2Y purinoceptor 12 (Homo sapiens, UniProt Q9H244); experiment: Antagonist activity at P2Y12R (unknown origin) expressed in CHO cells assessed as inhibition of forskolin-stimulated cAMP accumulation incubated for 15 mins in presence of IBMX by chromatography; assay type: functional, cell-based
# P2Y purinoceptor 12, sequence (Q9H244 whole entry): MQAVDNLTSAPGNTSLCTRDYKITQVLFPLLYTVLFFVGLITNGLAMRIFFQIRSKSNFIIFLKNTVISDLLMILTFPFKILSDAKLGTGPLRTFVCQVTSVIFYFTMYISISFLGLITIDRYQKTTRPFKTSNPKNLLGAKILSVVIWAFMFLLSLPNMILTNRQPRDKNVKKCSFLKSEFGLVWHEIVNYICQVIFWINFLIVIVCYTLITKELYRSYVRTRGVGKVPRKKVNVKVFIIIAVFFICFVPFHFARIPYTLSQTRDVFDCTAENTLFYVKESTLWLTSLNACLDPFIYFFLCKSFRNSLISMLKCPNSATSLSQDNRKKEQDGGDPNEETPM
# [24] = as §1, with “dead” for “late apoptotic”, “22.5%)” for “16.3%)”; assay type: functional; parameters: scale not given: the % may be the effect or the level left; conditions: time 28 hrs
# [25] = target: P2Y purinoceptor 6 (Homo sapiens, UniProt Q15077)
# P2Y purinoceptor 6, sequence (Q15077 whole entry): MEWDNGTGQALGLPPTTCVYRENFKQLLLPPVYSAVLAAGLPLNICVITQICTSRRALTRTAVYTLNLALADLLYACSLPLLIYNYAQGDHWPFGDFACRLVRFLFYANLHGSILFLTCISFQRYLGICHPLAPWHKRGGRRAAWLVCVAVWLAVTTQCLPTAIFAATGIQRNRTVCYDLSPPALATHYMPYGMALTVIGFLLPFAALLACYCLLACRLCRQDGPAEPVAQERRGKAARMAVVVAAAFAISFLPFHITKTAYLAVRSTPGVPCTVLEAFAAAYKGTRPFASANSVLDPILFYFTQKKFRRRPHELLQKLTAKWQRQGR
# [26] = target: T3, P2Y purinoceptor 13 (Homo sapiens, UniProt Q9BPV8); experiment: Antagonist activity at human P2Y13R expressed in HEK293 cells assessed as inhibition of 2MeSADP-induced cAMP production preincubated for 0.5 hrs followed by 2MeSADP stimulation by cAMP-glo assay; assay type: functional, cell-based
# T3 sequence (Q9BPV8 whole entry): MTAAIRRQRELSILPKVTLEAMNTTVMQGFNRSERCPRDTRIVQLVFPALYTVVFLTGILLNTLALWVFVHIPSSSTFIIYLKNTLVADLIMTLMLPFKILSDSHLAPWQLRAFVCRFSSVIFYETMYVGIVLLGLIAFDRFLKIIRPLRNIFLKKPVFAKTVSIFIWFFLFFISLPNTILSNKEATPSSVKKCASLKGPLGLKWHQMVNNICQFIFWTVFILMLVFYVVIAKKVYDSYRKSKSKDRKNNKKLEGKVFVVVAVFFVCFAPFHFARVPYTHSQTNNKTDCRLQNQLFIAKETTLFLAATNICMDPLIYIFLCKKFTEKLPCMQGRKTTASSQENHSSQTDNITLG
# [27] = target: P2Y purinoceptor 4 (Homo sapiens, UniProt P51582)
# P2Y purinoceptor 4, sequence (P51582 whole entry): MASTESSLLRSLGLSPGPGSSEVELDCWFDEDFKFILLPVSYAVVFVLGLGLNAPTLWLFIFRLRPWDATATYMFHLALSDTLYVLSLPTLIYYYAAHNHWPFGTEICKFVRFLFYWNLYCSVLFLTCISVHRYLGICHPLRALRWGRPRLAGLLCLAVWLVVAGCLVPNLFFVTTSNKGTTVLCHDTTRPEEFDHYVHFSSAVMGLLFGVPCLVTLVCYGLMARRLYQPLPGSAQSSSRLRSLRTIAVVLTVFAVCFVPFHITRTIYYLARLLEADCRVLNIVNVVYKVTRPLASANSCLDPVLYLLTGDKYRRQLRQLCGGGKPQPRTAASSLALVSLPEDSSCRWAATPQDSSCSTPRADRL
# [28] = system: Mus musculus; experiment: Antiinflammatory activity in ICR mouse model of LPS-induced acute peritonitis assessed as reduction in IL-1beta level in peritoneal fluid at 5 mg/kg, ip pretreated for 1 hr followed by LPS stimulation and measured after 6 hrs by qRT-PCR analysis; assay type: functional, organism-based; conditions: time 7.0 hrs
# [29] = system: Mus musculus; experiment: Antiinflammatory activity in ICR mouse model of LPS-induced acute peritonitis assessed as reduction in IL-6 level in peritoneal fluid at 5 mg/kg, ip pretreated for 1 hr followed by LPS stimulation and measured after 6 hrs by qRT-PCR analysis; assay type: functional, organism-based; conditions: time 7.0 hrs
# [30] = system: Mus musculus; experiment: Antiinflammatory activity in ICR mouse model of LPS-induced acute peritonitis assessed as reduction in TNF-alpha level in peritoneal fluid at 5 mg/kg, ip pretreated for 1 hr followed by LPS stimulation and measured after 6 hrs by qRT-PCR analysis; assay type: functional, organism-based; conditions: time 7.0 hrs
# [31] = HEK293, filed as antagonist, dose 100.0 nM
smiles,measurement,setting,value
Cc1ccc(C(=O)Nc2cc(C(=O)O)cc(-c3ccoc3)c2)cc1,solubility at 24 h,[1],878 µg/mL
same,solubility,[2],471.1 µg/mL
same,solubility,[3],69.1 µg/mL
same,solubility at 24 h,[4],77.6 µg/mL
Cc1ccc(C(=O)Nc2cc(C(=O)O)nn2Cc2cccc(F)c2)cc1,IC50,[5],5.39 nM
same,inhibition,[6]; [31],89%
CC(=O)c1ccc(Cn2nc(C(=O)O)cc2NC(=O)c2ccc(C)cc2)cc1,IC50,[5],67 nM
same,inhibition,[6]; [31],66.3%
O=C(Nc1cc(C(=O)O)nn1Cc1ccc(F)cc1)c1cccnc1,inhibition,"[6]; HEK293, dose 100.0 nM",27.4%
Cc1ccc(C(=O)Nc2cc(C(=O)O)nn2Cc2ccc(F)cc2)cc1,half-life,[7],4.57 h
same,solubility,"[1]; buffer, pH 7.4, 24 h",318.7 µg/mL
same,solubility,[2],202.7 µg/mL
same,"k el at 0.75 h, 2 ug/ml",[8],6.67e-05 s⁻¹
same,half-life at 2 ug/ml,[9],2.88 h
same,Tmax,[10],0.25 h
same,half-life at 2 ug/ml,[11],21 h
same,solubility,[3],85.1 µg/mL
same,"k el at 0.75 h, 2 ug/ml",[12],8.33e-06 s⁻¹
same,solubility,"[4]; buffer, pH 7, 24 h",88.5 µg/mL
same,CL/F,[13],32.5 mL/min/kg
same,clearance,[14],16.3 mL/min/kg
same,bioavailability,[15],43.2%
same,AUC(0-inf),[16],4500 ng·h/mL
same,Cmax,[17],1100 ng/mL
same,half-life,[18],1.82 h
same,AUC(0-inf),[19],2600 ng·h/mL
O=C(Nc1cc(C(=O)O)nn1Cc1ccc(F)cc1)c1ccccc1,inhibition,[6]; [31],77.4%
O=C(O)c1cc(-c2ccc(C3CCNCC3)cc2)c2ccc(-c3ccc(C(F)(F)F)cc3)cc2c1 [PPTN],Activity,[20],4.33%
same,solubility at 24 h,[1],< 5 µg/mL
same,solubility at 24 h,"[2]; simulated intestinal fluid without trypsin, pH 6.8",< 5 µg/mL
same,half-life at 2 ug/ml,[11],0.767 h
same,solubility at 24 h,"[3]; simulated gastric fluid without pepsin, pH 1.2",< 5 µg/mL
same,Activity,[21],79.8%
same,Activity,[22],4.68%
same,IC50,[23],> 10000 nM
same,Activity,[24],11.2%
same,solubility at 24 h,[4],< 5 µg/mL
same,bioavailability,[15],5%
N#Cc1ccc(C(=O)Nc2cc(C(=O)O)nn2Cc2ccc(F)cc2)cc1,inhibition,"[6]; HEK293, dose 100.0 nM",22.4%
O=C(Nc1cc(C(=O)O)nn1Cc1ccc(F)cc1)c1ccncc1,inhibition,"[6]; HEK293, dose 100.0 nM",32.5%
S=C=Nc1cccc(NC(=S)NCCCCNC(=S)Nc2cccc(N=C=S)c2)c1,IC50,[25],39500 nM
CCCSc1nc(N[C@@H]2C[C@H]2c2ccc(F)c(F)c2)c2nnn([C@@H]3C[C@H](OCCO)[C@@H](O)[C@H]3O)c2n1 [TICAGRELOR],IC50,[26],1400 nM
O=C(C1CC1)N1CCc2cc(Br)c(S(=O)(=O)Nc3ccc(Cl)c(C(F)(F)F)c3)cc21,IC50,[27],13600 nM
CCOC(=O)c1cc(NC(=O)c2ccc(C)cc2)n(Cc2ccc(F)cc2)n1,inhibition,[6]; [31],68.3%
Cc1ccc(C(=O)Nc2cc(C(=O)O)nn2Cc2ccc(F)cc2)cn1,inhibition,[6]; [31],53.7%
Cc1ccc(C(=O)Nc2cc(C(=O)O)nn2Cc2ccc(F)cc2)s1,inhibition,[6]; [31],77.9%
C[C@@H]1C[C@H]2[C@@H]3CCC4=CC(=O)C=C[C@]4(C)[C@@]3(F)[C@@H](O)C[C@]2(C)[C@@]1(O)C(=O)CO,Activity,[28],Active
same,Activity,[29],Active
same,Activity,[30],Active

# Source: ChEMBL document CHEMBL5150046, “Discovery of a Series of 5-Amide-1H-pyrazole-3-carboxyl Derivatives as Potent P2Y14R Antagonists with Anti-Inflammatory Characters” (J Med Chem, 2022)
